Data on 48 compounds can be found in patent publication US8822464B2, “N-aryl-piperazine derivatives and their use as positive allosteric modulators of mGluR5 receptors” (Boehringer Ingelheim International GmbH, priority 2011, dated 2014).

T1 sequence (P41594 21-1212): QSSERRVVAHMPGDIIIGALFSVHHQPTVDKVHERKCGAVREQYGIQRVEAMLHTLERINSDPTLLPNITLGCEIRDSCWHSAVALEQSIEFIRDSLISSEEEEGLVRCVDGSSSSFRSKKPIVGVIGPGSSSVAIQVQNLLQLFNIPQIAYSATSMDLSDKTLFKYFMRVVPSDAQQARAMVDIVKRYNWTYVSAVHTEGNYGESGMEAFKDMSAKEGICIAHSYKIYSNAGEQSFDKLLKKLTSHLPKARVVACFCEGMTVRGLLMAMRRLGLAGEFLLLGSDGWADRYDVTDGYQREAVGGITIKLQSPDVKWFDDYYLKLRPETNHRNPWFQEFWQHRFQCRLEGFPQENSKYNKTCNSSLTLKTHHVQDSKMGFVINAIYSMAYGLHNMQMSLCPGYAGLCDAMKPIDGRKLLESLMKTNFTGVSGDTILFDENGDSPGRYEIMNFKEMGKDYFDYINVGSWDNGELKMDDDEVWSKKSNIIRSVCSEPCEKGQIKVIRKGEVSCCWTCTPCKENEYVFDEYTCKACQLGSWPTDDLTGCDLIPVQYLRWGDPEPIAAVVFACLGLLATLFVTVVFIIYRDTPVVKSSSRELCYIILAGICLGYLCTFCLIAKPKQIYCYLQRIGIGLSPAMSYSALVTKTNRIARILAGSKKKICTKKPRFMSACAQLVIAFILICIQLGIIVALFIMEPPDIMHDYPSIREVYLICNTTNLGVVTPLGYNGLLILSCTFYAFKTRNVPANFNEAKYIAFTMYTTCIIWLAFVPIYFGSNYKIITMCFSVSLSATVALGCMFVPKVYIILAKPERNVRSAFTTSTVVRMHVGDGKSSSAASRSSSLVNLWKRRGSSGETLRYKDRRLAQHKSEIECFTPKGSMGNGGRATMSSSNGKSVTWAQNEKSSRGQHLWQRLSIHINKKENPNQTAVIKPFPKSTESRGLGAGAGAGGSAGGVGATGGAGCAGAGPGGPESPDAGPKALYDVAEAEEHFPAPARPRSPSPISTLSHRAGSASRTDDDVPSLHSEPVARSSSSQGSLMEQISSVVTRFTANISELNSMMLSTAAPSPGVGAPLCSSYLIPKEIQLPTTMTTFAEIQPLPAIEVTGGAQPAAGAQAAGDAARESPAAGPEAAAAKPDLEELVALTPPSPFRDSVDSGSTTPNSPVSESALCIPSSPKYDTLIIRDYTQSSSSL

This assay concerns the target T1, human recombinant mGluR5 (Homo sapiens, UniProt P41594).
T1 construct: expressed in transfected cells; host or cells: HEK 293 cell line; cultured with tetracycline, hygromycin and geneticin; tetracycline withdrawn 3-7 days before the assay
The assay can be described thus: positive modulation of mGluR5, calcium based FLIPR assay in HEK 293 cells. The conditions noted are these: HEK 293 cell line expressing human recombinant mGluR5; peak height of Ca release fluorescence signal after glutamate at approximately 5% basal stimulation; nonlinear regression. How it is done: The positive modulation of mGluR5 is measured in a HEK 293 cell line expressing human recombinant mGluR5 and is detected with calcium based FLIPR assay. The cells are cultured with DMEM supplemented with 10% FCS, 2 μg/mL tetracycline, 100 μg/mL hygromycin and 500 μg/mL gneticin. The cell culture media is exchanged for tetracycline-free cell culture media 3-7 days before the assay. One day before the assay the cell culture medium is exchanged to DMEM without glutamine and phenol red and supplemented with 10% FCS, 100 μg/mL hygromycin and 500 μg/mL geneticin. On the assay day, the medium of the subconfluent cultures is removed and the cells are detached by addition of 2.5 ml EDTA(0.02%) per 175 cm2 culture flask for 1 minute. The cells are resuspend in Ringer solution (140 mM NaCl, 5 mM KCl, 2.5 mM CaCl2, 1.5 mM MgCl2, 5 mM Glucose, 10 mM Hepes; adjusted to pH 7.4 with NaOH), pooled and Ringer solution added to adjust the volume to 50 mL. The cell suspension is centrifuged for 5 min at 1500 U/min (425 g). The supernatant is removed and the cells washed a second time with 50 ml fresh Ringer solution and centrifuged again as before. The supernatant is again removed and the pellet resuspended in Ringer solution to 1,000,000 cells/ml (1×10^6 cells/mL). The cells are plated onto BD BioCoat Poly-D-Lysine 384 well plates (20.000 cells/well; 20 μl/well). The lid covered plates are then incubated until use at 37° C./10% CO2. For dye loading, 20 μl of Calcium-4 assay kit solution (prepared according to the manufacturer's description in Ringer solution) are added to the cells and the plates are incubated for 80 min 37° C. and then 10 min at room temperature.
Controls, Compound Dilution and Assay Execution:
Each assay plate contained wells with “high” and “low” controls:
Low controls 1% DMSO/ringer solution+basal glutamate activation (defined as 100% CTL).
High controls 10 μM CDPPB+basal glutamate activation (defined as 200% CTL).
Test compounds are dissolved and diluted in DMSO to 100-fold the desired concentrations. In a second step, the compounds are diluted in Ringer solution such that the compounds are 4-fold more concentrated than the desired final assay concentration. The final DMSO concentration was 1%.
20 μl of each compound solution are then transferred to the assay plate and the Ca2+ kinetic is measured to determine any intrinsic compound activity. After 5 min incubation in the FLIPR device, the second stimulation with 20 μl of glutamate in Ringer solution (glutamate concentration adjusted to approximately 5% basal stimulation of the maximal possible glutamate effect) is added and the kinetic Ca2+ response of the wells was measured for the modulation effect.
The peak height of the Ca release related fluorescence signal (9-66) is used for the EC50. The EC50 of the modulation is calculated over a nonlinear regression with GraphPad Prism (Table 1).
As for `CCCc1cc(-c2ccc(F)c(C)c2)nn1CC(=O)N1CCN(c2cc(OC)ccn2)CC1` [Example 7.01.80], the 50% effective concentration (EC50) came to 45 nM.

Regarding `CCc1cc(-c2ccc(F)c(C)c2)nn1CC(=O)N1CCN(c2ncc(F)cn2)CC1` [Example 7.01.72], the EC50 stood at 63 nM.

With `CCCc1cc(-c2ccc(F)c(C)n2)nn1CC(=O)N1CCN(c2ncccn2)CC1` [Example 7.01.185], the concentration for a half-maximal effect (EC50) is 442 nM.

Take `Cc1cc(-c2cc(C)n(CC(=O)N3CCN(c4ccccn4)CC3)n2)ccc1F` [Example 7.02.21]: the EC50 amounted to 77 nM.

On to `Cc1cc(-c2cc(C(C)C)n(CC(=O)N3CCN(c4cccnn4)CC3)n2)ccc1F` [Example 7.01.29], for which the EC50 was 158 nM.

Turning to `CCCc1cc(-c2ccc(F)c(C)n2)nn1CC(=O)N1CCN(c2cc(OC)ncn2)CC1` [Example 7.01.187], the EC50 is 360 nM.

`Cc1cc(-c2cc(-c3ccccc3)n(CC(=O)N3CCN(c4ncccn4)CC3)n2)ncc1F` [Example 7.01.157]: the 50% effective concentration (EC50) was 35 nM.

In the case of `CCCc1cc(-c2ccc(F)c(C)c2)nn1CC(=O)N1CCN(c2ncc(OC)cn2)CC1` [Example 7.01.82], the 50% effective concentration (EC50) worked out at 33 nM.

Turning to `Cc1cccc(-c2cc(-c3ccccc3)n(CC(=O)N3CCN(c4ncccn4)CC3)n2)c1` [Example 7.01.165], the EC50 was found to be 4 nM.

`Cc1ccc(-c2cc(-c3ccccc3)n(CC(=O)N3CCN(c4ccccn4)CC3)n2)cc1F` [Example 7.01.189]: the EC50 came to 48 nM.

Take `Cc1cccc(-c2cc(-c3ccccc3)n(CC(=O)N3CCN(c4ccccn4)CC3)n2)c1` [Example 7.01.166]: the EC50 was determined as 8 nM.

In the case of `CCc1cc(-c2ccc(F)cc2)nn1CC(=O)N1CCN(c2cc(OC)ccn2)CC1` [Example 7.01.75], the EC50 worked out at 421 nM.

On to `COc1cnnc(N2CCN(C(=O)Cn3nc(-c4ccc(F)c(C)c4)cc3C(C)C)CC2)c1` [Example 7.01.30], for which the concentration for a half-maximal effect (EC50) was found to be 987 nM.

For `COc1ccnc(N2CCN(C(=O)Cn3nc(-c4ccc(F)c(C)c4)cc3C(C)C)CC2)c1` [Example 7.01.25], the half-maximal effective concentration (EC50) is 112 nM.

As for `O=C(Cn1nc(-c2ccccc2)cc1-c1ccccc1)N1CCN(c2ncccn2)CC1` [Example 7.02.01, 2-(3,5-diphenyl-pyrazol-1-yl)-1-(4-(2-pyrimidinyl)-1-piperazinyl)-ethanon], the concentration for a half-maximal effect (EC50) came out at 35 nM.

As for `O=C(Cn1nc(-c2ccc(C(F)F)cc2)cc1-c1ccccc1)N1CCN(c2ncccn2)CC1` [Example 7.01.191], the EC50 is 7 nM.

For `Cc1ccnc(N2CCN(C(=O)Cn3nc(-c4ccc(F)c(C)c4)cc3C(C)C)CC2)c1` [Example 7.01.24], the concentration giving a half-maximal response (EC50) was 79 nM.

For `COc1cc(N2CCN(C(=O)Cn3nc(-c4ccc(F)cc4)cc3C(C)C)CC2)ncn1` [Example 7.01.88], the EC50 was found to be 366 nM.

Consider `O=C(Cn1nc(-c2ccc(F)cn2)cc1-c1ccccc1)N1CCN(c2cccnn2)CC1` [Example 7.01.60], for which the EC50 was determined as 1230 nM.

Regarding `Cc1cc(-c2cc(C3CCCCC3)n(CC(=O)N3CCN(c4ccccn4)CC3)n2)ccc1F` [Example 7.01.35], the concentration for a half-maximal effect (EC50) amounted to 213 nM.

In the case of `CCc1cc(-c2cccc(C)c2)nn1CC(=O)N1CCN(c2cc(OC)ncn2)CC1` [Example 7.01.97], the EC50 was determined as 181 nM.

Consider `COc1ccc(-c2cc(C(C)C)n(CC(=O)N3CCN(c4cc(OC)ncn4)CC3)n2)cc1` [Example 7.01.23], for which the EC50 was 221 nM.

Take `Cc1ccnc(N2CCN(C(=O)Cn3nc(-c4ccc(F)c(C)c4)cc3C3CCCCC3)CC2)c1` [Example 7.01.33]: the EC50 is 161 nM.

On to `O=C(Cn1nc(-c2ccccc2)cc1-c1ccccc1)N1CCN(c2cc3ccccc3cn2)CC1` [Example 7.02.07], for which the EC50 turned out to be 853 nM.

`CCc1cccc(-c2cc(CC)n(CC(=O)N3CCN(c4ncccn4)CC3)n2)c1` [Example 7.01.131]: the EC50 is 59 nM.

Regarding `Cc1ccc(-c2cc(-c3ccccc3)n(CC(=O)N3CCN(c4ncccn4)CC3)n2)cc1F` [Example 7.01.188], the EC50 came out at 27 nM.

In the case of `COc1cnc(N2CCN(C(=O)Cn3nc(-c4cccc(C)c4)cc3-c3ccccc3)CC2)nc1` [Example 7.01.171], the EC50 was determined as 9 nM.

In the case of `O=C(Cn1nc(-c2ccc(F)cc2)cc1-c1ccc(F)cc1)N1CCN(c2ccccn2)CC1` [Example 7.01.15], the EC50 was determined as 30 nM.

`COc1cc(N2CCN(C(=O)Cn3nc(-c4ccc(F)c(C)c4)cc3-c3ccccc3)CC2)ncn1` [Example 7.01.03]: the half-maximal effective concentration (EC50) amounted to 11 nM.

As for `CCc1cc(-c2cccc(C)c2)nn1CC(=O)N1CCN(c2ncc(OC)cn2)CC1` [Example 7.01.100], the EC50 is 126 nM.

On to `COc1ccnc(N2CCN(C(=O)Cn3nc(-c4ccc(F)cc4)cc3C(C)C)CC2)c1` [Example 7.01.85], for which the half-maximal effective concentration (EC50) came out at 371 nM.

As to `Cc1cc(-c2cc(C3CC3)n(CC(=O)N3CCN(c4ccccn4)CC3)n2)ccc1F` [Example 7.01.41], the EC50 was determined as 234 nM.

For `CCc1cc(-c2cccc(Cl)c2)nn1CC(=O)N1CCN(c2ncc(OC)cn2)CC1` [Example 7.01.115], the EC50 worked out at 65 nM.

Consider `COc1ccnc(N2CCN(C(=O)Cn3nc(-c4ccc(F)c(C)c4)cc3C3CC3)CC2)c1` [Example 7.01.46], for which the concentration giving a half-maximal response (EC50) was found to be 333 nM.

Turning to `O=C(Cn1nc(-c2ccc(F)cc2)cc1-c1ccc(F)cc1)N1CCN(c2ncccn2)CC1` [Example 7.01.13], the concentration giving a half-maximal response (EC50) stood at 14 nM.

`N#Cc1ccccc1N1CCN(C(=O)Cn2nc(-c3ccccc3)cc2-c2ccccc2)CC1` [Example 7.01.10]: the EC50 amounted to 750 nM.

As to `COc1cnc(N2CCN(C(=O)Cn3nc(-c4ccc(F)c(C)c4)cc3CC(C)C)CC2)nc1` [Example 7.01.123], the EC50 turned out to be 36 nM.

With `CCc1cccc(-c2cc(CC)n(CC(=O)N3CCN(c4ccccn4)CC3)n2)c1` [Example 7.01.128], the EC50 worked out at 204 nM.

As to `CCc1cc(-c2ccc(F)cc2)nn1CC(=O)N1CCN(c2ncc(F)cn2)CC1` [Example 7.01.78], the concentration for a half-maximal effect (EC50) was determined as 723 nM.

`COc1ccnc(N2CCN(C(=O)Cn3nc(-c4ccc(OC)c(C)c4)cc3C(C)C)CC2)c1` [Example 7.01.55]: the EC50 was determined as 501 nM.

In the case of `Cc1nc(-c2cc(-c3ccccc3)n(CC(=O)N3CCN(c4ccccn4)CC3)n2)ccc1F` [Example 7.01.155], the concentration for a half-maximal effect (EC50) was determined as 24 nM.

For `O=C(Cn1nc(C2CCCCC2)cc1-c1ccc(F)cc1)N1CCN(c2ncccn2)CC1` [Example 7.04.02], the EC50 came out at 81 nM.

Regarding `Cc1cc(-c2cc(-c3ccccc3)n(CC(=O)N3CCN(c4cc(OCCN5CCOCC5)ncn4)CC3)n2)ccc1F` [Example 7.05.01, 2-[3-(4-fluoro-3-methyl-phenyl)-5-phenyl-pyrazol-1-yl]-1-{4-[6-(2-morpholin-4-yl-ethoxy)-pyrimidin-4-yl]-piperazin-1-yl}-ethanone], the EC50 was 40 nM.

As for `COCCCc1cc(-c2ccc(F)c(C)c2)nn1CC(=O)N1CCN(c2ccccn2)CC1` [Example 7.01.108], the 50% effective concentration (EC50) amounted to 1260 nM.

On to `COc1cnc(N2CCN(C(=O)Cn3nc(-c4ccc(F)c(C)c4)cc3C)CC2)nc1` [Example 7.02.26], for which the concentration for a half-maximal effect (EC50) was 36 nM.

On to `CCCc1cc(-c2ccc(F)c(C)c2)nn1CC(=O)N1CCN(c2cc(OC)ncn2)CC1` [Example 7.01.79], for which the EC50 is 26 nM.

As for `COCCCc1cc(-c2ccc(F)c(C)c2)nn1CC(=O)N1CCN(c2ncc(OC)cn2)CC1` [Example 7.01.112], the EC50 stood at 120 nM.

Take `Cc1cc(-c2cc(C(C)C)n(CC(=O)N3CCN(c4ncc(F)cn4)CC3)n2)ccc1F` [Example 7.01.31]: the EC50 was 208 nM.

For orientation: EC50 means the concentration that produces a half-maximal response.
